Bridge positions count the residues as written; N and C are the ends. Square brackets hold non-standard residues; d marks the D form. Peptide text beside a SMILES is read from it. Nle = CCCC[C@H](N)C(=O)O

The target in this assay is T1, human Kv1.3 voltage-gated K+ channel (Homo sapiens, UniProt P22001).
T1 construct: host or cells: CHO-DUKX
T1 sequence (P22001 whole entry): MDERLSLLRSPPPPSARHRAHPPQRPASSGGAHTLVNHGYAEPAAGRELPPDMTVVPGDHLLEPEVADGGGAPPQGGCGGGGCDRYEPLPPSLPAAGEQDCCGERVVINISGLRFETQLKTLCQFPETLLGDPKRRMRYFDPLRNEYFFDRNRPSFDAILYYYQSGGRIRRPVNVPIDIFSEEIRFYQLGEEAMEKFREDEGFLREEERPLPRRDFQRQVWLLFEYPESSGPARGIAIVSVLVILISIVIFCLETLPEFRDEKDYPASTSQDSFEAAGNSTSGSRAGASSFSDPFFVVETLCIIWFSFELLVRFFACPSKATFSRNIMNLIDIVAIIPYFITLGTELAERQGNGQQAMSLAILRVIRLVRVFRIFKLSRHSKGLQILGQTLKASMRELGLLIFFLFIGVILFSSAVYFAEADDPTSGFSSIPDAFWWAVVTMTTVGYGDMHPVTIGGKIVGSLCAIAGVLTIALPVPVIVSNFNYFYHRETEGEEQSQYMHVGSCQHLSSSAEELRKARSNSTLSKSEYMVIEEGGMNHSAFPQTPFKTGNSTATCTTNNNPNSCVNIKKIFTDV
The experiment in a line: cell-based. The note with it: inhibition of thallium flux, CHO-DUKX cells with human Kv1.3; read-out: IC50.
Broadly, the IC50 is the concentration needed to halve the response being measured. Regarding `CCCC[C@H](NC(=O)[C@@H]1CCCN1)C(=O)N[C@@H](CCC(=O)O)C(=O)N[C@@H](CCCC)C(=O)N[C@@H](CCCNC(=N)N)C(=O)N[C@H]1CSSC[C@@H]2NC(=O)[C@H](CCCCN)NC(=O)CNC(=O)[C@H](Cc3ccccc3)NC(=O)[C@H]([C@@H](C)CC)NC(=O)[C@H](CO)NC(=O)CNC(=O)[C@H]([C@@H](C)CC)NC(=O)[C@H](C)NC(=O)[C@H](C)NC(=O)[C@H](CC(C)C)NC(=O)[C@@H]3CSSC[C@@H](C(=O)N[C@@H](Cc4ccc(O)cc4)C(=O)N4CCC[C@H]4C(=O)N[C@@H](CCCNC(=N)N)C(=O)N[C@@H](C)C(=O)N[C@@H](CCCCN)C(=O)O)NC(=O)[C@H](CCCCN)NC(=O)[C@H](CSSC[C@H](NC(=O)[C@H](CCC(=O)O)NC(=O)[C@H](C(C)C)NC(=O)[C@H](CO)NC(=O)[C@H](C)NC(=O)[C@H](CO)NC1=O)C(=O)N[C@@H](CCCCN)C(=O)N[C@@H](CCC(N)=O)C(=O)N[C@@H](CCCCN)C(=O)N3)NC(=O)[C@H](CCCCN)NC(=O)[C@H](CCCCN)NC(=O)[C@H](CC(N)=O)NC(=O)[C@H](CCCC)NC2=O` [Compound 130] (H-P[Nle]E[Nle]RCSASVECKQKCLAAIGSIFGKC[Nle]NKKCKCYPRAK-OH; disulfide 6-27, 12-32, 16-34), the IC50 amounted to 0.529 nM.

`CCCC[C@H](NC(=O)[C@@H]1CCCN1)C(=O)N[C@@H](CCC(=O)O)C(=O)N[C@@H](CCCC)C(=O)N[C@@H](CCCNC(=N)N)C(=O)N[C@H]1CSSC[C@@H]2NC(=O)[C@H](CCCCN)NC(=O)CNC(=O)[C@H](Cc3ccccc3)NC(=O)[C@H]([C@@H](C)CC)NC(=O)[C@H](CO)NC(=O)CNC(=O)[C@H]([C@@H](C)CC)NC(=O)[C@H](C)NC(=O)[C@H](C)NC(=O)[C@H](CC(C)C)NC(=O)[C@@H]3CSSC[C@@H](C(=O)N[C@@H](Cc4ccc(O)cc4)C(=O)N4CCC[C@H]4C(=O)N[C@@H](CCCNC(=N)N)C(=O)N[C@@H](CO)C(=O)N[C@H](C(=O)O)[C@@H](C)O)NC(=O)[C@H](CCCCN)NC(=O)[C@H](CSSC[C@H](NC(=O)[C@H](CCC(=O)O)NC(=O)[C@H](C(C)C)NC(=O)[C@H](CO)NC(=O)[C@H](C)NC(=O)[C@H](CO)NC1=O)C(=O)N[C@@H](CCCCN)C(=O)N[C@@H](CCC(N)=O)C(=O)N[C@@H](CCCCN)C(=O)N3)NC(=O)[C@H](CCCCN)NC(=O)[C@H](CCCCN)NC(=O)[C@H](CC(N)=O)NC(=O)[C@H](CCCC)NC2=O` [Compound 133] (H-P[Nle]E[Nle]RCSASVECKQKCLAAIGSIFGKC[Nle]NKKCKCYPRST-OH; disulfide 6-27, 12-32, 16-34): the half-inhibitory concentration (IC50) is 1.1 nM.

For the compound `CCCC[C@H](NC(=O)[C@@H]1CCCN1)C(=O)N[C@@H](CCC(=O)O)C(=O)N[C@@H](CCCC)C(=O)N[C@@H](CCCNC(=N)N)C(=O)N[C@H]1CSSC[C@@H]2NC(=O)[C@H](CCCCN)NC(=O)CNC(=O)[C@H](Cc3ccccc3)NC(=O)[C@H]([C@@H](C)CC)NC(=O)[C@H](CO)NC(=O)CNC(=O)[C@H]([C@@H](C)CC)NC(=O)[C@H](C)NC(=O)[C@H](C)NC(=O)[C@H](CC(C)C)NC(=O)[C@@H]3CSSC[C@@H](C(=O)N[C@@H](Cc4ccc(O)cc4)C(=O)N4CCC[C@H]4C(=O)N[C@@H](CCCNC(=N)N)C(=O)N[C@@H](CCCNC(=N)N)C(=O)N[C@@H](Cc4ccc(O)cc4)C(=O)O)NC(=O)[C@H](CCCCN)NC(=O)[C@H](CSSC[C@H](NC(=O)[C@H](CCC(=O)O)NC(=O)[C@H](C(C)C)NC(=O)[C@H](CO)NC(=O)[C@H](C)NC(=O)[C@H](CO)NC1=O)C(=O)N[C@@H](CCCCN)C(=O)N[C@@H](CCC(N)=O)C(=O)N[C@@H](CCCCN)C(=O)N3)NC(=O)[C@H](CCCCN)NC(=O)[C@H](CCCCN)NC(=O)[C@H](CC(N)=O)NC(=O)[C@H](CCCC)NC2=O` [Compound 134] (H-P[Nle]E[Nle]RCSASVECKQKCLAAIGSIFGKC[Nle]NKKCKCYPRRY-OH; disulfide 6-27, 12-32, 16-34), the IC50 came out at 0.21 nM.

Regarding `CCCC[C@H](NC(=O)[C@@H]1CCCN1)C(=O)N[C@@H](CCC(=O)O)C(=O)N[C@@H](CCCC)C(=O)N[C@@H](CCCNC(=N)N)C(=O)N[C@H]1CSSC[C@@H]2NC(=O)[C@H](CCCCN)NC(=O)CNC(=O)[C@H](Cc3ccccc3)NC(=O)[C@H]([C@@H](C)CC)NC(=O)[C@H](CO)NC(=O)CNC(=O)[C@H]([C@@H](C)CC)NC(=O)[C@H](C)NC(=O)[C@H](C)NC(=O)[C@H](CC(C)C)NC(=O)[C@@H]3CSSC[C@@H](C(=O)N[C@@H](Cc4ccc(O)cc4)C(=O)N4CCC[C@H]4C(=O)N[C@@H](CCCNC(=N)N)C(=O)O)NC(=O)[C@H](CCCCN)NC(=O)[C@H](CSSC[C@H](NC(=O)[C@H](CCC(=O)O)NC(=O)[C@H](C(C)C)NC(=O)[C@H](CO)NC(=O)[C@H](CO)NC(=O)[C@H](CO)NC1=O)C(=O)N[C@@H](CCCCN)C(=O)N[C@@H](CCC(N)=O)C(=O)N[C@@H](CCCCN)C(=O)N3)NC(=O)[C@H](CCCCN)NC(=O)[C@H](CCCCN)NC(=O)[C@H](CC(N)=O)NC(=O)[C@H](CCCC)NC2=O` [Compound 135] (H-P[Nle]E[Nle]RCSSSVECKQKCLAAIGSIFGKC[Nle]NKKCKCYPR-OH; disulfide 6-27, 12-32, 16-34), the IC50 was found to be 0.336 nM.

Consider `CCCC[C@H](NC(=O)[C@@H]1CCCN1)C(=O)N[C@@H](CCC(=O)O)C(=O)N[C@@H](CCCC)C(=O)N[C@@H](CCCNC(=N)N)C(=O)N[C@H]1CSSC[C@@H]2NC(=O)[C@H](CCCCN)NC(=O)CNC(=O)[C@H](Cc3ccccc3)NC(=O)[C@H]([C@@H](C)CC)NC(=O)[C@H](CO)NC(=O)CNC(=O)[C@H]([C@@H](C)CC)NC(=O)[C@H](C)NC(=O)[C@H](C)NC(=O)[C@H](CC(C)C)NC(=O)[C@@H]3CSSC[C@@H](C(=O)N[C@@H](Cc4ccc(O)cc4)C(=O)N4CCC[C@H]4C(=O)N[C@@H](CCCNC(=N)N)C(=O)O)NC(=O)[C@H](CCCCN)NC(=O)[C@H](CSSC[C@H](NC(=O)[C@H](CCC(=O)O)NC(=O)[C@H](C(C)C)NC(=O)[C@H](CO)NC(=O)[C@H](CC(C)C)NC(=O)[C@H](CO)NC1=O)C(=O)N[C@@H](CCCCN)C(=O)N[C@@H](CCC(N)=O)C(=O)N[C@@H](CCCCN)C(=O)N3)NC(=O)[C@H](CCCCN)NC(=O)[C@H](CCCCN)NC(=O)[C@H](CC(N)=O)NC(=O)[C@H](CCCC)NC2=O` [Compound 136] (H-P[Nle]E[Nle]RCSLSVECKQKCLAAIGSIFGKC[Nle]NKKCKCYPR-OH; disulfide 6-27, 12-32, 16-34), for which the IC50 stood at 6.24 nM.

As to `CCCC[C@H](NC(=O)[C@@H]1CCCN1)C(=O)N[C@@H](CCC(=O)O)C(=O)N[C@@H](CCCC)C(=O)N[C@@H](CCCNC(=N)N)C(=O)N[C@H]1CSSC[C@@H]2NC(=O)[C@H](CCCCN)NC(=O)CNC(=O)[C@H](Cc3ccccc3)NC(=O)[C@H]([C@@H](C)CC)NC(=O)[C@H](CO)NC(=O)CNC(=O)[C@H]([C@@H](C)CC)NC(=O)[C@H](C)NC(=O)[C@H](C)NC(=O)[C@H](CC(C)C)NC(=O)[C@@H]3CSSC[C@@H](C(=O)N[C@@H](Cc4ccc(O)cc4)C(=O)N4CCC[C@H]4C(=O)N[C@@H](CCCNC(=N)N)C(=O)O)NC(=O)[C@H](CCCCN)NC(=O)[C@H](CSSC[C@H](NC(=O)[C@H](CCC(=O)O)NC(=O)[C@H](C(C)C)NC(=O)[C@@H]4CCCN4C(=O)[C@H](C)NC(=O)[C@H](CO)NC1=O)C(=O)N[C@@H](CCCCN)C(=O)N[C@@H](CCC(N)=O)C(=O)N[C@@H](CCCCN)C(=O)N3)NC(=O)[C@H](CCCCN)NC(=O)[C@H](CCCCN)NC(=O)[C@H](CC(N)=O)NC(=O)[C@H](CCCC)NC2=O` [Compound 137] (H-P[Nle]E[Nle]RCSAPVECKQKCLAAIGSIFGKC[Nle]NKKCKCYPR-OH; disulfide 6-27, 12-32, 16-34), the IC50 is 0.333 nM.

On to `CCCC[C@H](NC(=O)[C@@H]1CCCN1)C(=O)N[C@@H](CCC(=O)O)C(=O)N[C@@H](CCCC)C(=O)N[C@@H](CCCNC(=N)N)C(=O)N[C@H]1CSSC[C@@H]2NC(=O)[C@H](CCCCN)NC(=O)CNC(=O)[C@H](Cc3ccccc3)NC(=O)[C@H]([C@@H](C)CC)NC(=O)[C@H](CO)NC(=O)CNC(=O)[C@H]([C@@H](C)CC)NC(=O)[C@H](C)NC(=O)[C@H](C)NC(=O)[C@H](CC(C)C)NC(=O)[C@@H]3CSSC[C@@H](C(=O)N[C@@H](Cc4ccc(O)cc4)C(=O)N4CCC[C@H]4C(=O)N[C@@H](CCCNC(=N)N)C(=O)O)NC(=O)[C@H](CCCCN)NC(=O)[C@H](CSSC[C@H](NC(=O)[C@H](CCC(=O)O)NC(=O)[C@@H]4CCCN4C(=O)[C@H](CO)NC(=O)[C@H](C)NC(=O)[C@H](CO)NC1=O)C(=O)N[C@@H](CCCCN)C(=O)N[C@@H](CCC(N)=O)C(=O)N[C@@H](CCCCN)C(=O)N3)NC(=O)[C@H](CCCCN)NC(=O)[C@H](CCCCN)NC(=O)[C@H](CC(N)=O)NC(=O)[C@H](CCCC)NC2=O` [Compound 138] (H-P[Nle]E[Nle]RCSASPECKQKCLAAIGSIFGKC[Nle]NKKCKCYPR-OH; disulfide 6-27, 12-32, 16-34), for which the IC50 worked out at 0.228 nM.

Regarding `CCCC[C@H](NC(=O)[C@@H]1CCCN1)C(=O)N[C@@H](CCC(=O)O)C(=O)N[C@@H](CCCC)C(=O)N[C@@H](CCCNC(=N)N)C(=O)N[C@H]1CSSC[C@@H]2NC(=O)[C@H](CCCCN)NC(=O)CNC(=O)[C@H](Cc3ccccc3)NC(=O)[C@H]([C@@H](C)CC)NC(=O)[C@H](CO)NC(=O)CNC(=O)[C@H]([C@@H](C)CC)NC(=O)[C@H](C)NC(=O)[C@H](C)NC(=O)[C@H](CC(C)C)NC(=O)[C@@H]3CSSC[C@@H](C(=O)N[C@@H](Cc4ccc(O)cc4)C(=O)N4CCC[C@H]4C(=O)N[C@@H](CCCNC(=N)N)C(=O)O)NC(=O)[C@H](CCCCN)NC(=O)[C@H](CSSC[C@H](NC(=O)[C@H](CCC(=O)O)NC(=O)[C@H](CCC(N)=O)NC(=O)[C@H](CO)NC(=O)[C@H](C)NC(=O)[C@H](CO)NC1=O)C(=O)N[C@@H](CCCCN)C(=O)N[C@@H](CCC(N)=O)C(=O)N[C@@H](CCCCN)C(=O)N3)NC(=O)[C@H](CCCCN)NC(=O)[C@H](CCCCN)NC(=O)[C@H](CC(N)=O)NC(=O)[C@H](CCCC)NC2=O` [Compound 139] (H-P[Nle]E[Nle]RCSASQECKQKCLAAIGSIFGKC[Nle]NKKCKCYPR-OH; disulfide 6-27, 12-32, 16-34), the IC50 worked out at 0.453 nM.

The record behind these values is US11780893B2, “Kv1.3 blockers” (Zealand Pharma A/S, priority 2019, dated 2023).
